Results: article PMC10244169, “Psychedelics promote plasticity by directly binding to BDNF receptor TrkB” (Nature Neuroscience, 2023)

Legend:
mice = assay: Contextual fear conditioning, extinction and fear reinstatement (incl. baseline locomotor activity); format: in vivo, mouse; conditions: for Mean, figure 7k (contextual fear conditioning) / Mean, figure 7i (contextual fear conditioning) / Mean, figure 7j (contextual fear conditioning): LSD group; for Mean Diff., ext fig 7e: e7e; for Mean Diff., ext fig 7f: e7f; for Mean Diff., ext fig 7o: e7o, Bonferroni's multiple comparisons test
Procedure: Male WT mice (C57BL/6JRccHsd, Envigo) were used for contextual fear conditioning experiments with and without extinction training as previously described[11],[34] with modifications. Briefly, animals were conditioned in context A (metallic bar flooring, transparent Plexiglass walls, 23 × 23 × 35 cm arena) with a series of five scrambled foot shocks (0.6 mA, 2 s) along a 480 s session. […] During the following 3 days, mice were exposed to extinction training in context A for 480 s every 24 h or placed for the same duration and number of sessions in context B (black planar floor, black nontransparent walls, 23 × 23 × 35 cm arena), which we categorized as extinction and no extinction trainings, respectively. Afterwards, animals were placed back into their home cage and left undisturbed for 3 weeks. Finally, all mice were reconditioned with a new set of five scrambled foot shocks (0.6 mA, 2 s) along a 480 s session in context A, and their fear reinstatement response was measured 24 h later for the same duration also in context A. All sessions were conducted under constant illumination (100 lux). For the contextual fear conditioning and fear reinstatement experiment with male WT and Y433F^+/−, we used the same protocol as for animals undergoing extinction training in context A above. Baseline freezing was established during the first conditioning session. Movement was measured by infrared beams placed on the sides of the conditioning chamber, and freezing was automatically determined by the fear conditioning apparatus and software (TSE Systems) and expressed as the percentage of time spent freezing.

mouse TrkB = molecular target: T1, mouse TrkB (Mus musculus, UniProt P15209); assay: ^3H-LSD saturation binding to immunoprecipitated TrkB
T1 construct: from tissue; host or cells: mouse embryo (E18) brain
Procedure: Binding assays were performed as previously described with minor modifications. […] Samples from mouse embryo (E18) brains were also lysed, vortexed, sonicated and centrifuged for binding assays. Plates were then washed with PBS. […] For the competition binding assays with biotinylated R,R-HNK, the amino-biotinylation of R,R-HNK was performed using a commercial kit (Thermo Scientific, EZ-Link NHS-PEG4 Biotinylation Kit, 21455) and the reaction monitored by MS. A mixture of biotinylated R,R-HNK (10 µM) and unlabeled compounds (1 pM to 10 µM) in PBS was added to the 96-well plates containing the immunoprecipitated TrkB and incubated for 1 h at room temperature. […] Luminescence was determined via streptavidin conjugated with horseradish peroxidase (HRP; Thermo Fisher Scientific, 21126; 1:5,000, 1 h at room temperature) in reaction with the Pierce ECL substrate (Thermo Fisher Scientific, 32106). Luminescence from blank wells that contained all reagents but the sample lysates was used to determine nonspecific binding. To obtain the binding curves, results from binding assays were fitted to the equation of specific binding with Hill slope from GraphPad Prism 9.2. To calculate koff values, results were fitted to the equation of dissociation of one phase exponential decay from GraphPad Prism 9.2.

[1] = WT:Saline vs. WT:LSD, uncorrected Fisher's LSD
[2] = Y433F+/-:Saline vs. Y433F+/-:LSD, uncorrected Fisher's LSD
[3] = WT mice, saline minus LSD, uncorrected Fisher's LSD
[4] = Y433F+/- mice, saline minus LSD, uncorrected Fisher's LSD
[5] = means over WT and Y433F+/- mice

T1 sequence (P15209 32-821): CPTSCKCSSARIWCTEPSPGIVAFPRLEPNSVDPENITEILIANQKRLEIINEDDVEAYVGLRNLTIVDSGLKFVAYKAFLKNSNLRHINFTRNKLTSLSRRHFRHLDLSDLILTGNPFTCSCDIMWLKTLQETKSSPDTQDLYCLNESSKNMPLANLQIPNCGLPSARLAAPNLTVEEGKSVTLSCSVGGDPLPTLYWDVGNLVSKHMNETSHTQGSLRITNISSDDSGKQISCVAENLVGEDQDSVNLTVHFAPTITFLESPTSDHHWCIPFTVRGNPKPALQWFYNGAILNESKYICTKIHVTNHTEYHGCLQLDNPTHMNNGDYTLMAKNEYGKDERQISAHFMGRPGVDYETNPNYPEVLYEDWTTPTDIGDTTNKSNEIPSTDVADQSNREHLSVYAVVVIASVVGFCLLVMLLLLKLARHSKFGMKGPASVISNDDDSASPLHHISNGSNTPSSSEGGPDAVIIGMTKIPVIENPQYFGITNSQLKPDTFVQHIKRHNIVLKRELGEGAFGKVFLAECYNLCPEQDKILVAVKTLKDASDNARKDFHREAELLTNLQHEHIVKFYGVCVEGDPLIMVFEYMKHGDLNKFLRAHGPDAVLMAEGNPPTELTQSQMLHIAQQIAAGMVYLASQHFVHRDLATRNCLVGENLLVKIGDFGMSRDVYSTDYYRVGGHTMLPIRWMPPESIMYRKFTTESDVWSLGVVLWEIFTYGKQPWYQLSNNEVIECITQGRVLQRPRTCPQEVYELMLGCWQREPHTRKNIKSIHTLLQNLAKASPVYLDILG

Structure (SMILES): CCN(CC)C(=O)C1C=C2c3cccc4[nH]cc(c34)CC2N(C)C1 (centres unmarked) [LSD, lysergic acid diethylamide]
- Mean Diff., Fig. 7i (mice; [1]): 14.87
- Mean Diff., Fig. 7i (mice; [2]): -1.67
- Mean Diff., Fig. 7j (mice; [1]): 16.98
- Mean Diff., Fig. 7j (mice; [2]): -1.138
- Mean Diff., Fig. 7k (mice; Ext.:Saline vs. Ext.:LSD, uncorrected Fisher's LSD): 21.67
- Mean Diff., Fig. 7k (mice; No ext.:Saline vs. No ext.:LSD, uncorrected Fisher's LSD): 7.778
- Mean, figure 7k (contextual fear conditioning) (mice; Ext. (extinction training)): 20.42
- Mean Diff., figure 7k, Ext.:Saline vs. Ext.:LSD (mice; Ext., saline minus LSD, uncorrected Fisher's LSD): 21.67
- fear extinction without extinction training (mice; LSD alone, no extinction training): does not bring about fear extinction
- Mean, figure 7k (contextual fear conditioning) (mice; No ext.): 44.56
- Mean Diff., figure 7k, No ext.:Saline vs. No ext.:LSD (mice; No ext., saline minus LSD, uncorrected Fisher's LSD): 7.778
- contextual extinction of conditioned fear response (mice; WT mice, 72 h after single administration, persists at least 4 weeks, with extinction training): facilitates contextual extinction of conditioned fear response
- Mean, figure 7i (contextual fear conditioning) (mice; WT mice): 20.6
- Mean, figure 7j (contextual fear conditioning) (mice; WT mice): 39.47
- Mean Diff., figure 7i, WT:Saline vs. WT:LSD (mice; [3]): 14.87
- Mean Diff., figure 7j, WT:Saline vs. WT:LSD (mice; [3]): 16.98
- Mean, figure 7i (contextual fear conditioning) (mice; Y433F+/- mice): 34.18
- Mean, figure 7j (contextual fear conditioning) (mice; Y433F+/- mice): 54.05
- Mean Diff., figure 7i, Y433F+/-:Saline vs. Y433F+/-:LSD (mice; [4]): -1.67
- Mean Diff., figure 7j, Y433F+/-:Saline vs. Y433F+/-:LSD (mice; [4]): -1.138
- contextual extinction of conditioned fear response (mice; Y433F^+/− mice): these short- and long-term effects are lost
- Mean Diff., ext fig 7e (mice; [1]): -2.065
- Mean Diff., ext fig 7e (mice; [2]): -2.882
- Mean Diff., ext fig 7f (mice; [1]): -1.252
- Mean Diff., ext fig 7f (mice; [2]): -6.692
- Mean Diff., ext fig 7o (mice; Ext.:Saline vs. Ext.:LSD): 6.343
- Mean Diff., ext fig 7o (mice; No ext.:Saline vs. No ext.:LSD): -0.7639
- Predicted (LS) mean of LSD, figure 7i (mice; mean over WT and Y433F+/- mice): 27.39
- Predicted (LS) mean of LSD, figure 7j (mice; mean over WT and Y433F+/- mice): 46.76
- Difference between predicted means (Saline - LSD), figure 7i (mice; [5]): 6.598
- Difference between predicted means (Saline - LSD), figure 7j (mice; [5]): 7.923
- Kd (mouse TrkB): 0.425 ± 0.296 nM
- Bmax (mouse TrkB; ^3H-LSD saturation, mouse TrkB): 7.388 ± 0.771 pmol mg^−1 protein
- Bmax (specific binding with Hill slope, best-fit) (mouse TrkB; ext fig 1b, TRKB.wt, n=2): 117.1
- h (Hill slope, best-fit) (mouse TrkB; ext fig 1b, TRKB.wt, n=2): 0.5552
